# Laboratory results from US12226401B2, “Molecular genetic approach to treatment and diagnosis of alcohol and drug dependence” (priority 2010, dated 2025).
# Test system: alcoholics
# Experiment: Predicted treatment outcome with ondansetron by 5'-HTTLPR / rs1042173 genotype matrix
# Type: in vivo, human
# Design: key: XA being the very best; all the cells marked with an X will be efficacious; Y may respond somewhat; Z will not respond or worsen
compound,measurement,setting,value
"Cc1nccn1CC1CCc2c(c3ccccc3n2C)C1=O (stereo not drawn) [ondansetron, 9-methyl-3-[(2-methyl-1H-imidazol-1-yl)methyl]-1,2,3,9-tetrahydrocarbazol-4-one]",Predicted treatment outcome with ondansetron,genotype LL/GG,X
same,Predicted treatment outcome with ondansetron,genotype LL/TG,X
same,Predicted treatment outcome with ondansetron,genotype LL/TT,XA
same,Predicted treatment outcome with ondansetron,genotype LS/GG,Y
same,Predicted treatment outcome with ondansetron,genotype LS/TG,Y
same,Predicted treatment outcome with ondansetron,genotype LS/TT,X
same,Predicted treatment outcome with ondansetron,genotype SS/GG,Z
same,Predicted treatment outcome with ondansetron,genotype SS/TG,Z
same,Predicted treatment outcome with ondansetron,genotype SS/TT,X
